# Results: US4508663A, “Process for preparing thiosulfenamide derivatives of N-phosphonomethylglycinonitriles” (Monsanto Company, priority 1983, dated 1985)
# Key:
# Assay in all cases: post-emergence herbicidal activity, greenhouse
# Format in all cases: in vivo
# Johnsongrass = conditions: Table I, 4 WAT
# Outline: (§1)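 Plants grown from seed or perennial propagules in greenhouse soil pans were sprayed at two to three weeks with compound solution or suspension containing about 0.4% emulsifier, at the stated application rates. Injury relative to untreated controls was scored at approximately two and four weeks after treatment on a post-emergence activity index.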
# Crabgrass = conditions: Table II, 4 WAT
# Outline: as §1
# Wheat = conditions: Table II, 4 WAT
# Outline: as §1
# Barnyardgrass = conditions: 4 WAT
# Outline: as §1
# Soybean = conditions: Table II, 4 WAT
# Outline: as §1
# Yellow Nutsedge = conditions: Table I, 4 WAT
# Outline: as §1
# Canada Thistle = conditions: Table I, 4 WAT
# Outline: as §1
# Rice = conditions: Table II, 4 WAT
# Outline: as §1
# Morningglory = conditions: 4 WAT
# Outline: as §1
# Cocklebur = conditions: 4 WAT
# Outline: as §1
# Quackgrass = conditions: Table I, 4 WAT
# Outline: as §1
# Velvetleaf = conditions: 4 WAT
# Outline: as §1
# Panicum Spp = conditions: Table II, 4 WAT
# Outline: as §1
# Sorghum = conditions: Table II, 4 WAT
# Outline: as §1
# Downy Brome = conditions: 4 WAT
# Outline: as §1
# Lambsquarters = conditions: 4 WAT
# Outline: as §1
# Wild Buckwheat = conditions: Table II, 4 WAT
# Outline: as §1
# Hemp Sesbania = conditions: Table II, 4 WAT
# Outline: as §1
# Sugar Beet = conditions: Table II, 4 WAT
# Outline: as §1
# Smartweed = conditions: 4 WAT
# Outline: as §1
smiles,measurement,setting,value
"CC(C)CCSSN(CC#N)CP(=O)(Oc1ccccc1)Oc1ccccc1 [V, Phosphonic acid, [[(cyanomethyl)[(3-methylbutyl)-dithio]amino]methyl]-, diphenyl ester]",post-emergence herbicidal activity index,Johnsongrass; 5.6 kg/h,1 (25-49% control)
same,post-emergence herbicidal activity index,Johnsongrass; 11.2 kg/h,3 (75-99% control)
same,post-emergence herbicidal activity index,Crabgrass; 1.12 kg/h,1 (25-49% control)
same,post-emergence herbicidal activity index,Crabgrass; 5.6 kg/h,3 (75-99% control)
same,post-emergence herbicidal activity index,Wheat; 1.12 kg/h,0 (0-24% control)
same,post-emergence herbicidal activity index,Wheat; 5.6 kg/h,1 (25-49% control)
same,post-emergence herbicidal activity index,"Barnyardgrass; Table I, 5.6 kg/h",2 (50-74% control)
same,post-emergence herbicidal activity index,"Barnyardgrass; Table I, 11.2 kg/h",3 (75-99% control)
same,post-emergence herbicidal activity index,"Barnyardgrass; Table II, 1.12 kg/h",1 (25-49% control)
same,post-emergence herbicidal activity index,"Barnyardgrass; Table II, 5.6 kg/h",3 (75-99% control)
same,post-emergence herbicidal activity index,Soybean; 1.12 kg/h,1 (25-49% control)
same,post-emergence herbicidal activity index,Soybean; 5.6 kg/h,2 (50-74% control)
same,post-emergence herbicidal activity index,Yellow Nutsedge; 5.6 kg/h,2 (50-74% control)
same,post-emergence herbicidal activity index,Yellow Nutsedge; 11.2 kg/h,2 (50-74% control)
same,post-emergence herbicidal activity index,Canada Thistle; 5.6 kg/h,2 (50-74% control)
same,post-emergence herbicidal activity index,Canada Thistle; 11.2 kg/h,1 (25-49% control)
same,post-emergence herbicidal activity index,Rice; 1.12 kg/h,0 (0-24% control)
same,post-emergence herbicidal activity index,Rice; 5.6 kg/h,1 (25-49% control)
same,post-emergence herbicidal activity index,"Morningglory; Table I, 5.6 kg/h",2 (50-74% control)
same,post-emergence herbicidal activity index,"Morningglory; Table I, 11.2 kg/h",2 (50-74% control)
same,post-emergence herbicidal activity index,"Morningglory; Table II, 1.12 kg/h",1 (25-49% control)
same,post-emergence herbicidal activity index,"Morningglory; Table II, 5.6 kg/h",2 (50-74% control)
same,post-emergence herbicidal activity index,"Cocklebur; Table I, 5.6 kg/h",2 (50-74% control)
same,post-emergence herbicidal activity index,"Cocklebur; Table I, 11.2 kg/h",3 (75-99% control)
same,post-emergence herbicidal activity index,"Cocklebur; Table II, 1.12 kg/h",1 (25-49% control)
same,post-emergence herbicidal activity index,"Cocklebur; Table II, 5.6 kg/h",3 (75-99% control)
same,post-emergence herbicidal activity index,Quackgrass; 5.6 kg/h,1 (25-49% control)
same,post-emergence herbicidal activity index,Quackgrass; 11.2 kg/h,2 (50-74% control)
same,post-emergence herbicidal activity index,"Velvetleaf; Table I, 5.6 kg/h",1 (25-49% control)
same,post-emergence herbicidal activity index,"Velvetleaf; Table I, 11.2 kg/h",0 (0-24% control)
same,post-emergence herbicidal activity index,"Velvetleaf; Table II, 1.12 kg/h",0 (0-24% control)
same,post-emergence herbicidal activity index,"Velvetleaf; Table II, 5.6 kg/h",2 (50-74% control)
same,post-emergence herbicidal activity index,Panicum Spp; 1.12 kg/h,0 (0-24% control)
same,post-emergence herbicidal activity index,Panicum Spp; 5.6 kg/h,1 (25-49% control)
same,post-emergence herbicidal activity index,Sorghum; 1.12 kg/h,2 (50-74% control)
same,post-emergence herbicidal activity index,Sorghum; 5.6 kg/h,3 (75-99% control)
same,post-emergence herbicidal activity index,"Downy Brome; Table I, 5.6 kg/h",2 (50-74% control)
same,post-emergence herbicidal activity index,"Downy Brome; Table I, 11.2 kg/h",2 (50-74% control)
same,post-emergence herbicidal activity index,"Downy Brome; Table II, 1.12 kg/h",2 (50-74% control)
same,post-emergence herbicidal activity index,"Downy Brome; Table II, 5.6 kg/h",2 (50-74% control)
same,post-emergence herbicidal activity index,"Lambsquarters; Table I, 5.6 kg/h",4 (100% control)
same,post-emergence herbicidal activity index,"Lambsquarters; Table I, 11.2 kg/h",3 (75-99% control)
same,post-emergence herbicidal activity index,"Lambsquarters; Table II, 1.12 kg/h",1 (25-49% control)
same,post-emergence herbicidal activity index,"Lambsquarters; Table II, 5.6 kg/h",3 (75-99% control)
same,post-emergence herbicidal activity index,Wild Buckwheat; 1.12 kg/h,0 (0-24% control)
same,post-emergence herbicidal activity index,Wild Buckwheat; 5.6 kg/h,1 (25-49% control)
same,post-emergence herbicidal activity index,Hemp Sesbania; 1.12 kg/h,0 (0-24% control)
same,post-emergence herbicidal activity index,Hemp Sesbania; 5.6 kg/h,1 (25-49% control)
same,post-emergence herbicidal activity index,Sugar Beet; 1.12 kg/h,1 (25-49% control)
same,post-emergence herbicidal activity index,Sugar Beet; 5.6 kg/h,1 (25-49% control)
same,post-emergence herbicidal activity index,"Smartweed; Table I, 5.6 kg/h",1 (25-49% control)
same,post-emergence herbicidal activity index,"Smartweed; Table I, 11.2 kg/h",3 (75-99% control)
same,post-emergence herbicidal activity index,"Smartweed; Table II, 1.12 kg/h",0 (0-24% control)
same,post-emergence herbicidal activity index,"Smartweed; Table II, 5.6 kg/h",1 (25-49% control)
N#CCN(CP(=O)(Oc1ccccc1)Oc1ccccc1)SCl [I],post-emergence herbicidal activity index,Johnsongrass; 5.6 kg/h,1 (25-49% control)
same,post-emergence herbicidal activity index,Johnsongrass; 11.2 kg/h,1 (25-49% control)
same,post-emergence herbicidal activity index,Crabgrass; 0.28 kg/h,0 (0-24% control)
same,post-emergence herbicidal activity index,Crabgrass; 1.12 kg/h,2 (50-74% control)
same,post-emergence herbicidal activity index,Wheat; 0.28 kg/h,0 (0-24% control)
same,post-emergence herbicidal activity index,Wheat; 1.12 kg/h,1 (25-49% control)
same,post-emergence herbicidal activity index,Wheat; 5.6 kg/h,1 (25-49% control)
same,post-emergence herbicidal activity index,"Barnyardgrass; Table I, 5.6 kg/h",1 (25-49% control)
same,post-emergence herbicidal activity index,"Barnyardgrass; Table I, 11.2 kg/h",2 (50-74% control)
same,post-emergence herbicidal activity index,"Barnyardgrass; Table II, 0.28 kg/h",0 (0-24% control)
same,post-emergence herbicidal activity index,"Barnyardgrass; Table II, 1.12 kg/h",1 (25-49% control)
same,post-emergence herbicidal activity index,"Barnyardgrass; Table II, 5.6 kg/h",2 (50-74% control)
same,post-emergence herbicidal activity index,Soybean; 0.28 kg/h,1 (25-49% control)
same,post-emergence herbicidal activity index,Soybean; 1.12 kg/h,1 (25-49% control)
same,post-emergence herbicidal activity index,Soybean; 5.6 kg/h,2 (50-74% control)
same,post-emergence herbicidal activity index,Yellow Nutsedge; 5.6 kg/h,2 (50-74% control)
same,post-emergence herbicidal activity index,Yellow Nutsedge; 11.2 kg/h,2 (50-74% control)
same,post-emergence herbicidal activity index,Canada Thistle; 5.6 kg/h,1 (25-49% control)
same,post-emergence herbicidal activity index,Canada Thistle; 11.2 kg/h,2 (50-74% control)
same,post-emergence herbicidal activity index,Rice; 0.28 kg/h,0 (0-24% control)
same,post-emergence herbicidal activity index,Rice; 1.12 kg/h,0 (0-24% control)
same,post-emergence herbicidal activity index,Rice; 5.6 kg/h,1 (25-49% control)
same,post-emergence herbicidal activity index,"Morningglory; Table I, 5.6 kg/h",2 (50-74% control)
same,post-emergence herbicidal activity index,"Morningglory; Table I, 11.2 kg/h",2 (50-74% control)
same,post-emergence herbicidal activity index,"Morningglory; Table II, 0.28 kg/h",0 (0-24% control)
same,post-emergence herbicidal activity index,"Morningglory; Table II, 1.12 kg/h",1 (25-49% control)
same,post-emergence herbicidal activity index,"Morningglory; Table II, 5.6 kg/h",2 (50-74% control)
same,post-emergence herbicidal activity index,"Cocklebur; Table I, 5.6 kg/h",3 (75-99% control)
same,post-emergence herbicidal activity index,"Cocklebur; Table I, 11.2 kg/h",2 (50-74% control)
same,post-emergence herbicidal activity index,"Cocklebur; Table II, 0.28 kg/h",2 (50-74% control)
same,post-emergence herbicidal activity index,"Cocklebur; Table II, 1.12 kg/h",2 (50-74% control)
same,post-emergence herbicidal activity index,"Cocklebur; Table II, 5.6 kg/h",2 (50-74% control)
same,post-emergence herbicidal activity index,Quackgrass; 5.6 kg/h,0 (0-24% control)
same,post-emergence herbicidal activity index,Quackgrass; 11.2 kg/h,1 (25-49% control)
same,post-emergence herbicidal activity index,"Velvetleaf; Table I, 5.6 kg/h",2 (50-74% control)
same,post-emergence herbicidal activity index,"Velvetleaf; Table I, 11.2 kg/h",2 (50-74% control)
same,post-emergence herbicidal activity index,"Velvetleaf; Table II, 0.28 kg/h",1 (25-49% control)
same,post-emergence herbicidal activity index,"Velvetleaf; Table II, 1.12 kg/h",1 (25-49% control)
same,post-emergence herbicidal activity index,"Velvetleaf; Table II, 5.6 kg/h",2 (50-74% control)
same,post-emergence herbicidal activity index,Panicum Spp; 0.28 kg/h,0 (0-24% control)
same,post-emergence herbicidal activity index,Panicum Spp; 1.12 kg/h,0 (0-24% control)
same,post-emergence herbicidal activity index,Panicum Spp; 5.6 kg/h,1 (25-49% control)
same,post-emergence herbicidal activity index,Sorghum; 0.28 kg/h,1 (25-49% control)
same,post-emergence herbicidal activity index,Sorghum; 1.12 kg/h,2 (50-74% control)
same,post-emergence herbicidal activity index,Sorghum; 5.6 kg/h,3 (75-99% control)
same,post-emergence herbicidal activity index,"Downy Brome; Table I, 5.6 kg/h",0 (0-24% control)
same,post-emergence herbicidal activity index,"Downy Brome; Table I, 11.2 kg/h",2 (50-74% control)
same,post-emergence herbicidal activity index,"Downy Brome; Table II, 0.28 kg/h",1 (25-49% control)
same,post-emergence herbicidal activity index,"Downy Brome; Table II, 1.12 kg/h",0 (0-24% control)
same,post-emergence herbicidal activity index,"Downy Brome; Table II, 5.6 kg/h",1 (25-49% control)
same,post-emergence herbicidal activity index,"Lambsquarters; Table I, 5.6 kg/h",4 (100% control)
same,post-emergence herbicidal activity index,"Lambsquarters; Table I, 11.2 kg/h",3 (75-99% control)
same,post-emergence herbicidal activity index,"Lambsquarters; Table II, 0.28 kg/h",2 (50-74% control)
same,post-emergence herbicidal activity index,"Lambsquarters; Table II, 1.12 kg/h",4 (100% control)
same,post-emergence herbicidal activity index,"Lambsquarters; Table II, 5.6 kg/h",4 (100% control)
same,post-emergence herbicidal activity index,Wild Buckwheat; 0.28 kg/h,0 (0-24% control)
same,post-emergence herbicidal activity index,Wild Buckwheat; 1.12 kg/h,0 (0-24% control)
same,post-emergence herbicidal activity index,Wild Buckwheat; 5.6 kg/h,2 (50-74% control)
same,post-emergence herbicidal activity index,Hemp Sesbania; 0.28 kg/h,0 (0-24% control)
same,post-emergence herbicidal activity index,Hemp Sesbania; 1.12 kg/h,0 (0-24% control)
same,post-emergence herbicidal activity index,Hemp Sesbania; 5.6 kg/h,2 (50-74% control)
same,post-emergence herbicidal activity index,Sugar Beet; 0.28 kg/h,0 (0-24% control)
same,post-emergence herbicidal activity index,Sugar Beet; 1.12 kg/h,0 (0-24% control)
same,post-emergence herbicidal activity index,Sugar Beet; 5.6 kg/h,0 (0-24% control)
same,post-emergence herbicidal activity index,"Smartweed; Table I, 5.6 kg/h",0 (0-24% control)
same,post-emergence herbicidal activity index,"Smartweed; Table I, 11.2 kg/h",2 (50-74% control)
same,post-emergence herbicidal activity index,"Smartweed; Table II, 0.28 kg/h",1 (25-49% control)
same,post-emergence herbicidal activity index,"Smartweed; Table II, 1.12 kg/h",0 (0-24% control)
